From patent US8501749B2, “Azaquinazolinediones chymase inhibitors” (Boehringer Ingelheim International GmbH, priority 2009, dated 2013) come the findings set out here.

The target of the test is Chymase (Homo sapiens (Human), UniProt P23946). To be noted: read-out: Chymase IC50; fluorogenic rhodamine 110 peptide substrate, 1 hour at 28° C., 1% DMSO.
Chain of Chymase (P23946 22-247): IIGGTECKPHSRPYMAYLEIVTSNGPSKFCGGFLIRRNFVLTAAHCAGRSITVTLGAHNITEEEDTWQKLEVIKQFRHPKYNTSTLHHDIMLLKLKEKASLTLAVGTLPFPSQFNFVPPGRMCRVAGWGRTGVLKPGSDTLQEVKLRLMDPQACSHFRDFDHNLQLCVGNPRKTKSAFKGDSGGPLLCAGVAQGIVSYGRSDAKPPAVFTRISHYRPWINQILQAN

The term IC50 denotes the midpoint of a concentration-inhibition curve. On to `CC[C@H](CC(=O)O)n1c(=O)c2ncccc2n(Cc2cn(C)c3cc(C)cc(C)c23)c1=O` [(R)-3-[2,4-Dioxo-1-(1,4,6-trimethyl-1H-indol-3-ylmethyl)-1,4-dihydro-2H-pyrido[3,2-d]pyrimidin-3-yl]-pentanoic acid], for which the half-inhibitory concentration (IC50) came to 0.4 nM.
